Results on 18 compounds are retold here after patent US8044079B2, “Substituted oxindole derivatives, medicaments containing said derivatives and use thereof” (Abbott GmbH & Co. KG, priority 2005, dated 2011).

This assay addresses T1, human vasopressin V1b receptor (Homo sapiens, UniProt P47901).
T1 construct: expressed in transfected cells; host or cells: CHO-K1 (cell line hV1b_3H2_CHO), membrane preparation
T1 sequence (P47901 1-424): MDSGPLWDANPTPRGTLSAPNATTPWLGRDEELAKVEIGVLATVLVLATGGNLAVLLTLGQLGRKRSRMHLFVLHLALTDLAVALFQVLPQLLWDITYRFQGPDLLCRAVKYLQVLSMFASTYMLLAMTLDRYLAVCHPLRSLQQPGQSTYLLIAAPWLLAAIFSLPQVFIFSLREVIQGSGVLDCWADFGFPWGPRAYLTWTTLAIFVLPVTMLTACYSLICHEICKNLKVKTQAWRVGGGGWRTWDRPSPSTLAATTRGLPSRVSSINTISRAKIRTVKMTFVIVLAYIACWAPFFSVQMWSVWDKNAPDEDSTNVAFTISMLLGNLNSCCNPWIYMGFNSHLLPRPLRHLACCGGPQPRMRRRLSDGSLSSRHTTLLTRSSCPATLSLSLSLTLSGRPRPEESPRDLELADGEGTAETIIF
Kind of assay: Vasopressin V1b receptor binding test. Particulars: membranes of CHO-K1 cells with human V1b receptor, displacement of 1.5 nM 3H-AVP; for compounds with more than one stereogenic center the diastereomer with greater affinity. On the procedure:
Vasopressin V1b Receptor Binding Test:
The test substances were dissolved at a concentration of 10^−2 M in DMSO, and were further diluted to 5×10^−4 M to 5×10^−9 M in DMSO. This DMSO predilution series was diluted 1:10 with test buffer. In the test assay the substance concentration was further diluted to 1:5 (2% DMSO in the assay).
The membrane pellet was homogenized again as described and centrifuged, and was then taken up in 50 mM tris-HCl at pH 7.4, homogenized, and frozen in aliquots at −190° C. and stored in liquid nitrogen.
The incubation buffer was 50 mM tris, 10 mM MgCl2, and 0.1% BSA at pH 7.4. […] The nonspecific binding was determined using 1 μM AVP (Bachem #H1780). All determinations were performed in triplicate. After incubation (60 minutes at room temperature), the free radioligand was filtered off by vacuum filtration (Skatron 7000 cell harvester) through Wathman GF/B fiberglass filter mats, and the filters were transferred to scintillation vessels. The liquid scintillation measurement was conducted in a Model 2000 or 2200CA TriCarb unit (Packard). The measured cpm was converted to dpm using a standard quench series.
The binding parameters were calculated by nonlinear regression in SAS.
The affinities of the compounds according to the invention for human vasopressin receptor V1b were measured according to the above test, and the affinity constants (Ki) were determined.

A value given as a limit tells only on which side of the number the result lay.

On to `COCCN(C)Cc1ccc(C2(N3CCC[C@H]3c3ncco3)C(=O)N(S(=O)(=O)c3ccc(OC)cc3)c3ccc(Cl)cc32)c(OC)c1` (stereo partly drawn) [Example 22, 5-Chloro-1-(4-methoxybenzenesulfonyl)-3-(2-methoxy-4-{[(2-methoxyethyl)methylamino]methyl}phenyl)-3-((S)-2-oxazol-2-yl-pyrrolidin-1-yl)-1,3-dihydroindol-2-one], for which the inhibition constant (Ki) was 10 to 100 nM. Next, `COc1ccc(S(=O)(=O)N2C(=O)C(c3ccc(CN4CCN(C)CC4)cc3OC)(N3CCC[C@H]3c3ncco3)c3cc(Cl)ccc32)cc1` (stereo partly drawn) [Example 23, 5-Chloro-1-(4-methoxybenzenesulfonyl)-3-[2-methoxy-4-(4-methylpiperazin-1-ylmethyl)phenyl]-3-((S)-2-oxazol-2-yl-pyrrolidin-1-yl)-1,3-dihydroindol-2-one]: < 10 nM; `COc1ccc(S(=O)(=O)N2C(=O)C(c3ccc(CN4CCNCC4)cc3OC)(N3CCC[C@H]3c3ncco3)c3cc(Cl)ccc32)cc1` (stereo partly drawn) [Example 24, 5-Chloro-1-(4-methoxybenzenesulfonyl)-3-(2-methoxy-4-piperazin-1-ylmethylphenyl)-3-((S)-2-oxazol-2-yl-pyrrolidin-1-yl)-1,3-dihydroindol-2-one]: < 10 nM; `COc1ccc(S(=O)(=O)N2C(=O)C(c3ccc(CN4CCCC4)cc3OC)(N3CCC[C@H]3c3ncco3)c3cc(Cl)ccc32)cc1` (stereo partly drawn) [Example 25, 5-Chloro-1-(4-methoxybenzenesulfonyl)-3-(2-methoxy-4-pyrrolidin-1-ylmethylphenyl)-3-((S)-2-oxazol-2-yl-pyrrolidin-1-yl)-1,3-dihydroindol-2-one]: < 10 nM. The figure for `COc1ccc(S(=O)(=O)N2C(=O)C(c3ccc(CN4CCCCC4)cc3OC)(N3CCC[C@H]3c3ncco3)c3cc(Cl)ccc32)cc1` (stereo partly drawn) [Example 26, 5-Chloro-1-(4-methoxybenzenesulfonyl)-3-(2-methoxy-4-piperidin-1-ylmethylphenyl)-3-((S)-2-oxazol-2-yl-pyrrolidin-1-yl)-1,3-dihydroindol-2-one] is < 10 nM; for `COc1ccc(S(=O)(=O)N2C(=O)C(c3cc(CN(C)C)ccc3OC)(N3CCC[C@H]3c3ncco3)c3ccc(Cl)cc32)cc1` (stereo partly drawn) [Example 28, 6-Chloro-3-(5-dimethylaminomethyl-2-methoxyphenyl)-1-(4-methoxybenzenesulfonyl)-3-((S)-2-oxazol-2-yl-pyrrolidin-1-yl)-1,3-dihydroindol-2-one] it is 100 to 1000 nM.

`CCN(C)Cc1ccc(OC)c(C2(N3CCC[C@H]3c3ncco3)C(=O)N(S(=O)(=O)c3ccc(OC)cc3)c3cc(Cl)ccc32)c1` (stereo partly drawn) [Example 30, 6-Chloro-3-{5-[(ethylmethylamino)methyl]-2-methoxyphenyl}-1-(4-methoxybenzenesulfonyl)-3-((S)-2-oxazol-2-yl-pyrrolidin-1-yl)-1,3-dihydroindol-2-one] yielded a Ki of 100 to 1000 nM. The figure for `CCN(CC)Cc1ccc(OC)c(C2(N3CCC[C@H]3c3ncco3)C(=O)N(S(=O)(=O)c3ccc(OC)cc3)c3cc(Cl)ccc32)c1` (stereo partly drawn) [Example 31, 6-Chloro-3-(5-diethylaminomethyl-2-methoxyphenyl)-1-(4-methoxybenzenesulfonyl)-3-((S)-2-oxazol-2-yl-pyrrolidin-1-yl)-1,3-dihydroindol-2-one] is 100 to 1000 nM; for `CCCNCc1ccc(OC)c(C2(N3CCC[C@H]3c3ncco3)C(=O)N(S(=O)(=O)c3ccc(OC)cc3)c3cc(Cl)ccc32)c1` (stereo partly drawn) [Example 32, 6-Chloro-1-(4-methoxybenzenesulfonyl)-3-(2-methoxy-5-propylaminomethylphenyl)-3-((S)-2-oxazol-2-yl-pyrrolidin-1-yl)-1,3-dihydroindol-2-one] it is 100 to 1000 nM; for `COc1ccc(S(=O)(=O)N2C(=O)C(c3cc(CN(C)C(C)C)ccc3OC)(N3CCC[C@H]3c3ncco3)c3ccc(Cl)cc32)cc1` (stereo partly drawn) [Example 33, 6-Chloro-3-{5-[(isopropylmethylamino)methyl]-2-methoxyphenyl}-1-(4-methoxybenzenesulfonyl)-3-((S)-2-oxazol-2-yl-pyrrolidin-1-yl)-1,3-dihydroindol-2-one] it is 100 to 1000 nM. Next, `COCCN(C)Cc1ccc(OC)c(C2(N3CCC[C@H]3c3ncco3)C(=O)N(S(=O)(=O)c3ccc(OC)cc3)c3cc(Cl)ccc32)c1` (stereo partly drawn) [Example 34, 6-Chloro-1-(4-methoxybenzenesulfonyl)-3-(2-methoxy-5-{[(2-methoxyethyl)methylamino]methyl}phenyl)-3-((S)-2-oxazol-2-yl-pyrrolidin-1-yl)-1,3-dihydroindol-2-one]: 100 to 1000 nM; `COc1ccc(S(=O)(=O)N2C(=O)C(c3cc(CN4CCN(C)CC4)ccc3OC)(N3CCC[C@H]3c3ncco3)c3ccc(Cl)cc32)cc1` (stereo partly drawn) [Example 35, 6-Chloro-1-(4-methoxybenzenesulfonyl)-3-[2-methoxy-5-(4-methylpiperazin-1-ylmethyl)phenyl]-3-((S)-2-oxazol-2-yl-pyrrolidin-1-yl)-1,3-dihydroindol-2-one]: 100 to 1000 nM; `COc1ccc(S(=O)(=O)N2C(=O)C(c3cc(CN4CCOCC4)ccc3OC)(N3CCC[C@H]3c3ncco3)c3ccc(Cl)cc32)cc1` (stereo partly drawn) [Example 37, 6-Chloro-1-(4-methoxybenzenesulfonyl)-3-(2-methoxy-5-morpholin-4-ylmethylphenyl)-3-((S)-2-oxazol-2-yl-pyrrolidin-1-yl)-1,3-dihydroindol-2-one]: 100 to 1000 nM. Next, `COc1ccc(S(=O)(=O)N2C(=O)C(c3cc(CN4CCC4)ccc3OC)(N3CCC[C@H]3c3ncco3)c3ccc(Cl)cc32)cc1` (stereo partly drawn) [Example 38, 3-(5-Azetidin-1-ylmethyl-2-methoxyphenyl)-6-chloro-1-(4-methoxybenzenesulfonyl)-3-((S)-2-oxazol-2-yl-pyrrolidin-1-yl)-1,3-dihydroindol-2-one]: 100 to 1000 nM. Regarding `COc1ccc(S(=O)(=O)N2C(=O)C(c3cc(CN4CCCC4)ccc3OC)(N3CCC[C@H]3c3ncco3)c3ccc(Cl)cc32)cc1` (stereo partly drawn) [Example 39, 6-Chloro-1-(4-methoxybenzenesulfonyl)-3-(2-methoxy-5-pyrrolidin-1-ylmethylphenyl)-3-((S)-2-oxazol-2-yl-pyrrolidin-1-yl)-1,3-dihydroindol-2-one], the inhibition constant (Ki) was in the range of 100 to 1000 nM. The figure for `COc1ccc(S(=O)(=O)N2C(=O)C(c3cc(CN4CCCCC4)ccc3OC)(N3CCC[C@H]3c3ncco3)c3ccc(Cl)cc32)cc1` (stereo partly drawn) [Example 40, 6-Chloro-1-(4-methoxybenzenesulfonyl)-3-(2-methoxy-5-piperidin-1-ylmethylphenyl)-3-((S)-2-oxazol-2-yl-pyrrolidin-1-yl)-1,3-dihydroindol-2-one] is 100 to 1000 nM; for `COc1ccc(S(=O)(=O)N2C(=O)C(c3ccc(CN(C)C)cc3OC)(N3CCC[C@H]3c3ncco3)c3cc(C#N)ccc32)cc1` (stereo partly drawn) [Example 41, 5-Cyano-3-(4-dimethylaminomethyl-2-methoxyphenyl)-1-(4-methoxybenzenesulfonyl)-3-((S)-2-oxazol-2-yl-pyrrolidin-1-yl)-1,3-dihydroindol-2-one] it is 10 to 100 nM; for `COc1ccc(S(=O)(=O)N2C(=O)C(c3ccc(CN4CCN(C)CC4)cc3OC)(N3CCC[C@H]3c3ncco3)c3cc(C#N)ccc32)cc1` (stereo partly drawn) [Example 42, 5-Cyano-1-(4-methoxybenzenesulfonyl)-3-[2-methoxy-4-(4-methylpiperazin-1-ylmethyl)phenyl]-3-((S)-2-oxazol-2-yl-pyrrolidin-1-yl)-1,3-dihydroindol-2-one] it is 10 to 100 nM.
